Our source for the inhibition values is patent publication US20230172201A1, “Use of 4-Phenylbutyric Acid and/or 3-Phenylbutyric Acid and/or 2-Phenylbutyric Acid in Preventing and Treating Cryptogamic Diseases” (Institut National de Recherche Pour L'Agriculture, …, priority 2020, published 2023).

The assay relates to Botrytis cinerea (BMM strain). As to the kind of experiment: Mycelial development in liquid medium, absorbance at 600 nm (nephelometry). In kind it is cell-based. Conditions: Botrytis cinerea, 96 h; 1 mM; incubation for 4 days; Example 4; read-out: degree of inhibition.

SMILES strings stand for the structures.

With `CCC(C(=O)O)c1ccccc1` (stereo not shown) [2-PBA, 2-Phenylbutyric acid], the inhibition at 1000 µM was approximately 70%.
